Assay results from patent US20260078120A1, “SUBSTITUTED PYRIDOPYRIMIDINONES” (MIRATI THERAPEUTICS, INC., priority 2022, published 2026).
Like-named read-outs stand apart in the source and are kept apart here.

Key:
[1] = system: T47D (PI3Kα H1047R mutant) cells; experiment: CellTiter-Glo 2.0 luminescent cell viability assay, 72 hours, T47D cells; type: cell-based; conditions: T47D (PI3Kα H1047R mutant) cells, CellTiter-Glo, approximately 72 hours, read-out: T47D (H1047R mutant) Viability IC50
Method in brief: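 Cells seeded at 1000 per well overnight were dosed with a 10-concentration, 1:4 series starting at 10 µM and incubated ~72 h at 37° C. Viability was read by CellTiter-Glo 2.0 luminescence after 30 min at room temperature. IC50 came from four-parameter fits of percent vehicle control.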

[2] = system: SKBR3 (PI3Kα wild type) cells; experiment: CellTiter-Glo 2.0 luminescent cell viability assay, 72 hours, SKBR3 cells; type: cell-based; conditions: Homo sapiens, SK-BR-3, 72 h, SKBR3 (PI3Kα wild type) cells, CellTiter-Glo, approximately 72 hours; read-out: SKBR3 (WT) Viability IC50
Method in brief: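 Viability measured via CTG luminescence following roughly 72 hours of compound exposure at 37° C. Dosing used a 10 um starting concentration diluted 1:4 over 10 points; percent-of-vehicle data fitted with a variable-slope four-parameter model for IC50.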

| SMILES | IC50 ([1]; Homo sapiens, T47D, 72 h) [µM] | IC50 [2] [µM] | IC50 [1] [µM] |
| --- | --- | --- | --- |
| Cc1cc([C@@H](C)Nc2ccccc2C(=O)O)c2nc(N3CCN(c4ccc(C#N)cc4)[C@H](C)C3)c(C#N)c(=O)n2c1 [Example 11-270, 2-(((R)-1-(3-cyano-2-((R)-4-(4-cyanophenyl)-3-methylpiperazin-1-yl)-7-methyl-4-oxo-4H-pyrido[1,2-a]pyrimidin-9-yl)ethyl)amino)benzoic acid] | 0.227 | > 10 | – |
| Cc1cc([C@@H](C)Nc2ccccc2C(=O)O)c2nc(N3CCN(c4ccc(C#N)cc4)C(C)C3)c(C#N)c(=O)n2c1 (stereo partly drawn) [Example 11-271, 2-(((1R)-1-(3-cyano-2-(4-(4-cyanophenyl)-3-methylpiperazin-1-yl)-7-methyl-4-oxo-4H-pyrido[1,2-a]pyrimidin-9-yl)ethyl)amino)benzoic acid] | 0.118 | 7.1 | – |
| Cc1cc([C@@H](C)Nc2ccncc2C(=O)O)c2nc(N3Cc4ccccc4C3)c(C#N)c(=O)n2c1 [Example 11-274, (R)-4-((1-(3-cyano-2-(isoindolin-2-yl)-7-methyl-4-oxo-4H-pyrido[1,2-a]pyrimidin-9-yl)ethyl)amino)nicotinic acid] | > 10 | > 10 | – |
| Cc1cc([C@@H](C)Nc2cc(Cl)nnc2C(=O)O)c2nc(N3Cc4ccccc4C3)c(C)c(=O)n2c1 [Example 11-276, (R)-6-chloro-4-((1-(2-(isoindolin-2-yl)-3,7-dimethyl-4-oxo-4H-pyrido[1,2-a]pyrimidin-9-yl)ethyl)amino)pyridazine-3-carboxylic acid] | > 10 | > 10 | – |
| Cc1cc([C@@H](C)Nc2cccn(C)c2=O)c2nc(N3CCCCC3)c(C)c(=O)n2c1 [Example 11-278, (R)-3,7-dimethyl-9-(1-((1-methyl-2-oxo-1,2-dihydropyridin-3-yl)amino)ethyl)-2-(piperidin-1-yl)-4H-pyrido[1,2-a]pyrimidin-4-one] | 8.35 | > 10 | – |
| Cc1cc([C@@H](C)Nc2ccc(Cl)nc2C(=O)O)c2nc(N3CCC(C)(C)CC3)c(C)c(=O)n2c1 [Example 11-279, (R)-6-chloro-3-((1-(2-(4,4-dimethylpiperidin-1-yl)-3,7-dimethyl-4-oxo-4H-pyrido[1,2-a]pyrimidin-9-yl)ethyl)amino)picolinic acid] | 0.192 | > 10 | – |
| Cc1cc([C@@H](C)Nc2ccccc2C(=O)O)c2nc(NC34CC(CO)(C3)C4)c(C#N)c(=O)n2c1 [Example 11-282, (R)-2-((1-(3-cyano-2-((3-(hydroxymethyl)bicyclo[1.1.1]pentan-1-yl)amino)-7-methyl-4-oxo-4H-pyrido[1,2-a]pyrimidin-9-yl)ethyl)amino)benzoic acid] | 1.65 | > 10 | – |
| Cc1cc([C@@H](C)Nc2ccccc2C(=O)O)c2nc(N3CCNC(=O)C3)c(C#N)c(=O)n2c1 [Example 11-284, (R)-2-((1-(3-cyano-7-methyl-4-oxo-2-(3-oxopiperazin-1-yl)-4H-pyrido[1,2-a]pyrimidin-9-yl)ethyl)amino)benzoic acid] | > 10 | > 10 | – |

More lines, now with the values ahead:

| IC50 ([1]; Homo sapiens, T47D, 72 h) [µM] | IC50 [2] [µM] | IC50 [1] [µM] | SMILES |
| --- | --- | --- | --- |
| 1.18 | > 10 | – | Cc1cc([C@@H](C)Nc2ccccc2C(=O)O)c2nc(N3CCN(c4cnn(C)c4)CC3)c(C#N)c(=O)n2c1 [Example 11-264, (R)-2-((1-(3-cyano-7-methyl-2-(4-(1-methyl-1H-pyrazol-4-yl)piperazin-1-yl)-4-oxo-4H-pyrido[1,2-a]pyrimidin-9-yl)ethyl)amino)benzoic acid] |
| 0.248 | > 10 | – | Cc1cc([C@@H](C)Nc2ccccc2C(=O)O)c2nc(N3CCN(c4cnn(C)c4)CC3)c(C)c(=O)n2c1 [Example 11-265, (R)-2-((1-(3,7-dimethyl-2-(4-(1-methyl-1H-pyrazol-4-yl)piperazin-1-yl)-4-oxo-4H-pyrido[1,2-a]pyrimidin-9-yl)ethyl)amino)benzoic acid] |
| 0.236 | > 10 | – | Cc1cc([C@@H](C)Nc2ccccc2C(=O)O)c2nc(N3CCN(c4ccccc4C)CC3)c(C)c(=O)n2c1 [Example 11-267, (R)-2-((1-(3,7-dimethyl-4-oxo-2-(4-(o-tolyl)piperazin-1-yl)-4H-pyrido[1,2-a]pyrimidin-9-yl)ethyl)amino)benzoic acid] |
| 0.362 | > 10 | – | Cc1cc([C@@H](C)Nc2ccccc2C(=O)O)c2nc(N3CCN(c4ccccc4)CC3C)c(C)c(=O)n2c1 (stereo partly drawn) [Example 11-268, 2-(((1R)-1-(3,7-dimethyl-2-(2-methyl-4-phenylpiperazin-1-yl)-4-oxo-4H-pyrido[1,2-a]pyrimidin-9-yl)ethyl)amino)benzoic acid] |
| – | > 10 | 0.11 | Cc1cc([C@@H](C)Nc2ccccc2C(=O)O)c2nc(N3CCN(c4ccc(C#N)cc4)CC3C)c(C)c(=O)n2c1 (stereo partly drawn) [Example 11-269, 2-(((1R)-1-(2-(4-(4-cyanophenyl)-2-methylpiperazin-1-yl)-3,7-dimethyl-4-oxo-4H-pyrido[1,2-a]pyrimidin-9-yl)ethyl)amino)benzoic acid] |
| 0.141 | > 10 | – | Cc1cc([C@@H](C)Nc2ccccc2C(=O)O)c2nc(N3CCN(c4ccc(C#N)cc4)CC3)c(C#N)c(=O)n2c1 [Example 11-272, (R)-2-((1-(3-cyano-2-(4-(4-cyanophenyl)piperazin-1-yl)-7-methyl-4-oxo-4H-pyrido[1,2-a]pyrimidin-9-yl)ethyl)amino)benzoic acid] |
| 3.1 | 7.39 | – | Cc1cc([C@@H](C)Nc2ccccc2C(=O)O)c2nc(N3CCN(c4ccccc4)CC3)c(C)c(=O)n2c1 [Example 11-273, (R)-2-((1-(3,7-dimethyl-4-oxo-2-(4-phenylpiperazin-1-yl)-4H-pyrido[1,2-a]pyrimidin-9-yl)ethyl)amino)benzoic acid] |
| > 10 | > 10 | – | Cc1cc([C@@H](C)Nc2ccncc2C(=O)O)c2nc(N3Cc4ccccc4C3)c(C)c(=O)n2c1 [Example 11-275, (R)-4-((1-(2-(isoindolin-2-yl)-3,7-dimethyl-4-oxo-4H-pyrido[1,2-a]pyrimidin-9-yl)ethyl)amino)nicotinic acid] |
| 4.19 | > 10 | – | Cc1cc([C@@H](C)Nc2ccnnc2C(=O)O)c2nc(N3Cc4ccccc4C3)c(C)c(=O)n2c1 [Example 11-277, (R)-4-((1-(2-(isoindolin-2-yl)-3,7-dimethyl-4-oxo-4H-pyrido[1,2-a]pyrimidin-9-yl)ethyl)amino)pyridazine-3-carboxylic acid] |
| 0.383 | > 10 | – | Cc1cc([C@@H](C)Nc2ccc(Cl)cc2C(=O)O)c2nc(N3Cc4ccccc4C3)c(C)c(=O)n2c1 [Example 11-280, (R)-5-chloro-2-((1-(2-(isoindolin-2-yl)-3,7-dimethyl-4-oxo-4H-pyrido[1,2-a]pyrimidin-9-yl)ethyl)amino)benzoic acid] |
| 0.427 | > 10 | – | Cc1cc([C@@H](C)Nc2ccc(Cl)cc2C(=O)O)c2nc(N3CCCCC3)c(C)c(=O)n2c1 [Example 11-281, (R)-5-chloro-2-((1-(3,7-dimethyl-4-oxo-2-(piperidin-1-yl)-4H-pyrido[1,2-a]pyrimidin-9-yl)ethyl)amino)benzoic acid] |
| 7.17 | > 10 | – | Cc1cc([C@@H](C)Nc2ccccc2C(=O)O)c2nc(N3CCN(S(C)(=O)=O)CC3)c(C#N)c(=O)n2c1 [Example 11-283, (R)-2-((1-(3-cyano-7-methyl-2-(4-(methylsulfonyl)piperazin-1-yl)-4-oxo-4H-pyrido[1,2-a]pyrimidin-9-yl)ethyl)amino)benzoic acid] |
